This is an account of results in ChEMBL document CHEMBL3870329, “Synthesis of peptide nucleic acids (PNA) with a crosslinking agent to RNA and effective inhibition of dicer” (Bioorg Med Chem Lett, 2016).

The subject of experiment [1] is Nucleic Acid. Nature of the experiment: Binding affinity to 5'-end FAM-tagged GACCAAACCCAAUCUGGUU RNA (unknown origin) assessed as induction of crosslinking by measuring heteroduplex formation at 4 uM measured after 24 hrs by bromophenol blue staining-based denaturing PAGE analysis relative to control. Type of experiment: nucleic-acid assay.
Experiment [2] concerns Nucleic Acid. The experiment is described as follows: Binding affinity to 5'-end FAM-tagged GACCAAGCCCAATCTGGTT DNA (unknown origin) assessed as induction of crosslinking by measuring heteroduplex formation at 4 uM measured after 24 hrs by bromophenol blue staining-based denaturing PAGE analysis relative to control. Format: nucleic-acid assay.
The subject of experiment [3] is Nucleic Acid. Nature of the experiment: Binding affinity to 5'-end FAM-tagged GACCAATCCCAATCTGGTT DNA (unknown origin) assessed as induction of crosslinking by measuring heteroduplex formation at 4 uM measured after 24 hrs by bromophenol blue staining-based denaturing PAGE analysis relative to control. Type of experiment: nucleic-acid assay.
Experiment [4] relates to Nucleic Acid. Nature of the experiment: Binding affinity to 5'-end FAM-tagged GACCAACCCCAATCTGGTT DNA (unknown origin) assessed as induction of crosslinking by measuring heteroduplex formation at 4 uM measured after 24 hrs by bromophenol blue staining-based denaturing PAGE analysis relative to control. Format: nucleic-acid assay.
Experiment [5] relates to unidentified. The experiment is described as follows: Binding affinity to 5'-end FAM-tagged GACCAAUCCCAAUCUGGUU RNA (unknown origin) assessed as melting temperature at 1.5 uM measured after 5 mins by UV spectrophotometry (reference value: 77.1 degC).
The subject of experiment [6] is Nucleic Acid. The experiment is described as follows: Binding affinity to 5'-end FAM-tagged GACCAACCCCAAUCUGGUU RNA (unknown origin) assessed as induction of crosslinking by measuring heteroduplex formation at 4 uM measured after 24 hrs by bromophenol blue staining-based denaturing PAGE analysis relative to control. Format: nucleic-acid assay.
In experiment [7] the test system is Nucleic Acid. The experiment is described as follows: Binding affinity to 5'-end FAM-tagged GACCAAACCCAATCTGGTT DNA (unknown origin) assessed as induction of crosslinking by measuring heteroduplex formation at 4 uM measured after 24 hrs by bromophenol blue staining-based denaturing PAGE analysis relative to control. Format: nucleic-acid assay.
Experiment [8] deals with Nucleic Acid. Nature of the experiment: Binding affinity to 5'-end FAM-tagged GACCAAUCCCAAUCUGGUU RNA (unknown origin) assessed as induction of crosslinking by measuring heteroduplex formation at 4 uM measured after 24 hrs by bromophenol blue staining-based denaturing PAGE analysis relative to control. Format: nucleic-acid assay.
Experiment [9] deals with Nucleic Acid. Nature of the experiment: Binding affinity to 5'-end FAM-tagged GACCAAGCCCAAUCUGGUU RNA (unknown origin) assessed as induction of crosslinking by measuring heteroduplex formation at 4 uM measured after 24 hrs by bromophenol blue staining-based denaturing PAGE analysis relative to control. Type of experiment: nucleic-acid assay.
The subject of experiment [10] is unidentified. The experiment is described as follows: Binding affinity to 5'-end FAM-tagged GACCAATCCCAATCTGGTT DNA (unknown origin) assessed as melting temperature at 1.5 uM measured after 5 mins by UV spectrophotometry (reference value: 67.4 degC).
In experiment [11] the test system is Nucleic Acid. The experiment is described as follows: Binding affinity to synthetic 5'-fluorescein-labelled pre-miR-122 RNA site3 (unknown origin) assessed as heteroduplex formation at 4 uM measured after 48 hrs by non-denaturing PAGE analysis relative to control. Type of experiment: nucleic-acid assay.
The subject of experiment [12] is Nucleic Acid. The experiment is described as follows: Binding affinity to synthetic 5'-FAM-labelled pre-miR-122 RNA site3 (unknown origin) assessed as heteroduplex formation at 4 uM measured after 2 hrs by denaturing PAGE analysis relative to control. Type of experiment: nucleic-acid assay.
Experiment [13] relates to Nucleic Acid. The experiment is described as follows: Binding affinity to 5'-end FAM-tagged GCAAACUAUCAAAUCUGUGU RNA (unknown origin) assessed as induction of crosslinking by measuring heteroduplex formation at 4 uM measured after 24 hrs by bromophenol blue staining-based denaturing PAGE analysis. Format: nucleic-acid assay.
For experiment [14], the system named is Nucleic Acid. Nature of the experiment: Binding affinity to synthetic 5'-FAM-labelled pre-miR-122 RNA site3 (unknown origin) assessed as human dicer-mediated digestion of pre-miR-122 RNA preincubated with RNA for 2 days followed by dicer addition measured after 2 hrs by denaturing PAGE analysis. Type of experiment: nucleic-acid assay.
Experiment [15] deals with Nucleic Acid. Nature of the experiment: Binding affinity to synthetic 5'-FAM-labelled pre-miR-122 RNA site3 (unknown origin) assessed as inhibition of human dicer-mediated digestion of pre-miR-122 RNA by measuring heteroduplex formation preincubated with RNA for 2 days followed by dicer addition measured after 2 hrs by denaturing PAGE analysis relative to control. Type of experiment: nucleic-acid assay. The note with it: concentration not given here.

Molecules are shown by their SMILES. Calls of active or inactive are those of the source. The calls are words filed in the database; no cut-off is given here.

As to `C=Cc1nc(N)nc2c1ncn2CC(=O)N(CCNC(=O)CN(CCNC(=O)CN(CCNC(=O)CN(CCNC(C)=O)C(=O)Cn1cnc2c(=O)[nH]c(N)nc21)C(=O)Cn1cc(C)c(=O)[nH]c1=O)C(=O)Cn1cc(C)c(=O)[nH]c1=O)CC(=O)NCCN(CC(=O)NCCN(CC(=O)NCCN(CC(=O)NCCN(CC(=O)NCCN(CC(=O)NCCN(CC(=O)NCCN(CC(=O)N[C@@H](CCCNC(=N)N)C(=O)N[C@@H](CCCNC(=N)N)C(=O)NCC(N)=O)C(=O)Cn1cnc2c(=O)[nH]c(N)nc21)C(=O)Cn1cnc2c(N)ncnc21)C(=O)Cn1cc(C)c(=O)[nH]c1=O)C(=O)Cn1cc(C)c(=O)[nH]c1=O)C(=O)Cn1cnc2c(=O)[nH]c(N)nc21)C(=O)Cn1cnc2c(=O)[nH]c(N)nc21)C(=O)Cn1cnc2c(=O)[nH]c(N)nc21`, the Activity worked out at 0% with Nucleic Acid [1]; 7% in the experiment with Nucleic Acid [2]; 3% in the experiment with Nucleic Acid [3]; 1% with Nucleic Acid [4]; 0% in the experiment with Nucleic Acid [6]; 0% with Nucleic Acid [7]. The Activity was found to be 2% in the experiment with Nucleic Acid [8] and 4% with Nucleic Acid [9]. Besides, the Tm in the experiment on unidentified [5] was 83 °C; in the experiment with unidentified [10], 77.3 °C.
As to `Cc1cn(CC(=O)N(CCNC(=O)CN(CCNC(=O)CN(CCNC(=O)CN(CCNC(=O)CN(CCNC(=O)CN(CCN)C(=O)Cn2cnc3c(N)ncnc32)C(=O)Cn2cc(C)c(=O)[nH]c2=O)C(=O)Cn2cnc3c(N)ncnc32)C(=O)Cn2cnc3c(=O)[nH]c(N)nc32)C(=O)Cn2cc(C)c(=O)[nH]c2=O)CC(=O)NCCN(CC(=O)NCCN(CC(=O)NCCN(CC(=O)NCCN(CC(=O)NCCN(CC(=O)NCCN(CC(=O)NCCN(CC(=O)N[C@@H](CCCNC(=N)N)C(=O)O)C(=O)Cn2ccc(N)nc2=O)C(=O)Cn2cnc3c(N)ncnc32)C(=O)Cn2ccc(N)nc2=O)C(=O)Cn2cnc3c(N)ncnc32)C(=O)Cn2cnc3c(=O)[nH]c(N)nc32)C(=O)Cn2cnc3c(N)ncnc32)C(=O)Cn2cc(C)c(=O)[nH]c2=O)c(=O)[nH]c1=O`, the Activity was 75% in the experiment on Nucleic Acid [11], 0% in the experiment with Nucleic Acid [12] and 53% with Nucleic Acid [14]. In addition, the result with Nucleic Acid [13] was Active. The inhibition (as a rule, how much of the control response was suppressed) in the experiment with Nucleic Acid [15] is 47%.
